Laboratory results published in US20130303539A1, “COMPOUNDS WITH TRPV4 ACTIVITY, COMPOSITIONS AND ASSOCIATED METHODS THEREOF” (priority 2012, published 2013).

Key:
TRPV4 [1] = biological target: T1, TRPV4 (Mus musculus, UniProt Q9EPK8); assay: TRPV4 agonist GSK-evoked [Ca++]i in retinal Müller glial cells; assay type: cell-based; set-up: endogenous in cells; host or cells: retinal Müller glial cells
retinal ganglion cells [2] = assay: In vivo intraocular injection of TRPV4 agonist GSK, NeuN+ RGC count; settings: 100-300 nM injected intraocularly, retinas isolated after 48 hours
Method: In this experiment, GSK (100-300 nM) was injected intraocularly with a Hamilton syringe. Retinas were isolated after 48 hours, fixed and labeled with the RGC marker antibody NeuN. NeuN-immunopositive somata in the ganglion cell layer, shown in the panel on the right, were counted. The bar graph represents quantification of NeuN^+ cells in the indicated experimental groups.

TRPV4 [3] = biological target: T2, TRPV4 (Homo sapiens, UniProt Q9HBA0); assay: Calcium imaging (fura-2) in human trabecular meshwork cells; assay type: cell-based; settings: bath application 100 nM, human TM cells, room temperature
T2 construct: endogenous in cells; host or cells: primary human trabecular meshwork cells from trabeculectomy tissue
Method: Pieces of tissue were isolated from a trabeculectomy. Trabecular meshwork cells (TM) were kept in cold L15 medium and then loaded with Fura-2 (10 μm) for 1 hour. Fibroblast-shaped cells were imaged from a TM chunk (˜500 μm×500 μm) with a 40× water immersion objective. The sampling rate was at 6 second intervals. Krebs Ringer Bicarbonate Recording buffer (7.4, 284 mOsm) was prepared as reported by Anthony et al., 1998, IOVS; Prostaglandin F2α receptors in the human trabecular meshwork.
Calcium imaging was performed on TM cells isolated from human patients. In brief, dissociated human TM cells embedded within the tissue were dissociated and plated on concanavalin A-coated (0.2 mg/ml; Sigma) coverslips, loaded with fura-2 AM ([…]; Invitrogen Life Technologies) for 15 min-1 hour and washed for 10 min in dye-free L-15 medium. […] Fluorescence emission was high-pass filtered at 510 nm and captured with cooled digital CCD cameras (HQ2, Photometrics). […] Fluorescence imaging was performed on regions of interest (ROIs) encompassing the TM cell somata, typically at 3×3 binning. Background fluorescence was measured in similarly sized ROIs in neighboring areas devoid of cells. After sequential image acquisition (0.167-0.5 Hz) of cell fluorescence at 340/380 nm, the background was subtracted. […]

retinal ganglion cells [4] = assay: TUNEL assay of apoptotic cell death in retina; assay type: cell-based
Method: Terminal deoxynucleotidyl transferase-mediated dUTP-biotin nick end labeling (TUNEL) is a common method for detecting fragmentation that results from apoptotic signaling cascades. Retinas were embedded, cryosectioned, and processed for the TUNEL assay following the protocol by Gavrieli et al. (1992). After 30 min. rehydration in 70% ethanol, 2×5 min. rinses in PBS and 1% Triton-X in 1% citrate buffer (pH 7.3), the slides were subjected to a final rinse in PBS. Slides were then incubated for 30 min. in the reaction buffer (30 mM Trizma-HCl, 140 mM Na^+ cacodylate, 1.0 mM CaCl2, 0.2% Triton X-100, pH 7.2). Positive controls were treated with DNAse I (Roche Diagnostics; Branford, Conn.; 10 U/ml) in the reaction buffer. Next, slides were treated for 1 hour with 0.03 units/pi terminal transferase and 4 μM biotin-16-dUTP (Roche Diagnostics). The reaction was terminated in 30 mM Na+ citrate, 300 mM NaCl and 0.2% Triton X-100 in PBS (5 min.) and rinsed in PBS (2×5 min), exposed to 1% bovine serum albumin in PBS for 20 min and rinsed. Apoptotic cells were visualized with a confocal microscope (Zeiss LSM510) and categorized by size. […] This was blocked by RuR and by the TRPV4 antagonist Compound 1.

TRPV4 [5] = biological target: T1, TRPV4; assay: AGB cation influx into retinal cells (anti-AGB antibody); assay type: cell-based; set-up: these two cell types express TRPV4 channels in the mouse retina; from tissue; host or cells: mouse retina; settings: mouse retina
Method: FIG. 16 illustrates the effect of the TRPV4 agonist GSK on cation influx into mouse retinal cells of the mouse retina. The influx was determined using the anti-AGB antibody, as described by Marc RE (J Comp Neurol 407(1): 47-64, 1999). AGB is a membrane permeant cation that can flow through most known cation channels. Using an anti-AGB antibody, it can be determined where the cation flux occurs and, therefore, which cells are activated.

Müller cells = assay: Arachidonic acid-induced [Ca2+]i in Müller cells; assay type: cell-based; settings: 10 μM, Müller cells
Method: This response is blocked by Compound 1 (1 μM).

MB model of glaucoma = assay: IOP time course after a single eye drop in the MB model of glaucoma; assay type: in vivo, mouse
Method: Specifically, microbeads (MBs) were injected into the anterior chamber of a mouse eye as described in Example 2 with PBS-injected eyes used as controls. Compound 1 (10 mg/kg body weight) (or PBS vehicle) was injected intraperitoneally (IP). […] IOP was measured in mice between 10:00 AM and 1:00 PM with the TonoLab rebound tonometer (Colonial Medical Supply, Franconia, NH/Tyolat, Helsinki, Finland). Mice were sedated with IP injection of Avertin with final amount calculated by weight (e.g., 0.5 ml for 21-24 g animals). Animals were placed on a jack stand platform and the tonolab was clamped on a ring stand and centered onto the mid-cornea. During measurements animal were neither restrained nor touched. Each eye was measured twenty consecutive times, the highest and lowest values were discarded and the values were averaged.
FIG. 9 illustrates the short-term effects of a single dose of Compound 1 (eye drop) in the MB model of glaucoma. IOP was measured as described in Example 3 at the indicated time points after receiving a drop of Compound 1. Compound 1 reduced IOP beginning at 1 hour after dosing and continued through 6 hours after dosing.
FIG. 10 illustrates a time course of Compounds 1, 2, 5 and Compound 2-HCl as well as a positive control compound, timolol, with regard to inhibition of IOP. The experiment was conducted as described in Example 9. Each of the TRPV4 antagonists reduced IOP with a similar time course. Specifically, Compounds 1, 2, 5 and Compound 2-HCl reduced IOP for at least 6 hours after dosing.
FIG. 11 illustrates a time course of Compound 2-HCl activity. The experiment was conducted as described in Example 9. […] 2
FIG. 12 illustrates a comparison of the time course of Compound 2-HCl and Compound 5. The experiment was conducted as described in Example 9.

[6] = tested on: retinal neurons (RGCs) and glia (Müller cells); assay: Hypotonic stimuli: cell swelling (change in cell area) and [Ca++]i; assay type: cell-based; settings: osmolarity lowered from 300 mOsm to 190 mOsm
Text: FIG. 18A illustrates the effect of hypotonic stimuli on cell swelling as measured by change in cell area. Hypotonic stimuli were generated by replacing extracellular sodium levels to lower osmolarity from 300 mOsm to 190 mOsm.

T1 sequence (Q9EPK8 whole entry): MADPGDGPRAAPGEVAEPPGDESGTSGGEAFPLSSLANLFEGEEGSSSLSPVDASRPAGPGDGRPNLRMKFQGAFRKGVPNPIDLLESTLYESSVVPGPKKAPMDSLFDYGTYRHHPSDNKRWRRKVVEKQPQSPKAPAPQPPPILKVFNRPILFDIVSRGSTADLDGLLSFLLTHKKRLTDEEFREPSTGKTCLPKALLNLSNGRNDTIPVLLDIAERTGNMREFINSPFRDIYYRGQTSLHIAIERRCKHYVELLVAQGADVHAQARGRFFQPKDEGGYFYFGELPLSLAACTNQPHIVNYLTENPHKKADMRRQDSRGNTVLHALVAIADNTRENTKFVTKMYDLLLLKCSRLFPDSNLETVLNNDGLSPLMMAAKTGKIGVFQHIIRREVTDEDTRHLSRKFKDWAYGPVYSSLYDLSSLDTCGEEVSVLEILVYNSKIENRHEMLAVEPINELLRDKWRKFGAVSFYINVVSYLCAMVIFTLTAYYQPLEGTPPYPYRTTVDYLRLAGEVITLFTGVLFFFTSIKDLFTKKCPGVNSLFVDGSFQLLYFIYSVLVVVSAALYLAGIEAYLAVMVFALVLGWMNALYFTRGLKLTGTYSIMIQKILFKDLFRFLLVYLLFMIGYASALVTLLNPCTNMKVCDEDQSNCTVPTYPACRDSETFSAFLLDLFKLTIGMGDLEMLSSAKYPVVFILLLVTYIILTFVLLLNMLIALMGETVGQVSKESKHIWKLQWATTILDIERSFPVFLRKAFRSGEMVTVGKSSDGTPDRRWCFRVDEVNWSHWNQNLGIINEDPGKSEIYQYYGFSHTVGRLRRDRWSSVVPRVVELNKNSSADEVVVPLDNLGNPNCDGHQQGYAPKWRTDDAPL
T2 sequence (Q9HBA0 whole entry): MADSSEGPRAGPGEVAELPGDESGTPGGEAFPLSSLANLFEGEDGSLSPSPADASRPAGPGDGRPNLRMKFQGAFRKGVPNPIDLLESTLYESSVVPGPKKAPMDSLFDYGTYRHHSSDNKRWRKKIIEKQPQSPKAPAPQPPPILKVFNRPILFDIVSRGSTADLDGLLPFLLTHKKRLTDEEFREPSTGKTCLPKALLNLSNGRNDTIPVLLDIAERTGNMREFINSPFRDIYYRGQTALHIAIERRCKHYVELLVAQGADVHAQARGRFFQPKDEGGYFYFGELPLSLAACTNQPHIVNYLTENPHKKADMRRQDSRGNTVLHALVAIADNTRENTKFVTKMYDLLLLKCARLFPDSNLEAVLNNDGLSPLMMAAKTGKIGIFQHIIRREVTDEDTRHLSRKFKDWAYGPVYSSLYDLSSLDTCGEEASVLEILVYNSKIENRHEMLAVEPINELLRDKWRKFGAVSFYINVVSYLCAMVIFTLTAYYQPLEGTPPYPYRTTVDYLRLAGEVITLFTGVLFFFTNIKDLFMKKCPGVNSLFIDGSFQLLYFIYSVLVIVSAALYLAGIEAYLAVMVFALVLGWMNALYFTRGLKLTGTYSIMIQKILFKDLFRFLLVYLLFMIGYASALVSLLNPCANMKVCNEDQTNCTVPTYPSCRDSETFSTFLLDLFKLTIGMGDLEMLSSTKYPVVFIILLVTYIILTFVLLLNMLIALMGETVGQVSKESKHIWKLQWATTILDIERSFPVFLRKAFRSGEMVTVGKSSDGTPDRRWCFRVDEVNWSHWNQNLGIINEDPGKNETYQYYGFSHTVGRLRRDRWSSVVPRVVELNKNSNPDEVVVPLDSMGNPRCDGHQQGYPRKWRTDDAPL

In the case of `CC(C)C[C@H](NC(=O)c1cc2ccccc2s1)C(=O)N1CCN(C(=O)[C@H](CO)NS(=O)(=O)c2ccc(Cl)cc2Cl)CC1` [GSK1016790A, reference compound], the “intracellular calcium concentration [Ca++]i, agonist effect” value (TRPV4 [1]) is reported as “evokes sustained increases in intracellular calcium concentration”, the “number of retinal ganglion cells (NeuN+ somata), agonist effect” value (retinal ganglion cells [2]) is reported as “substantially reduces the number of retinal ganglion cells” and the “340/380 fluorescence ratio (intracellular calcium concentration [Ca++]i)” value (TRPV4 [3]) is reported as “increased 340/380 fluorescence ratio”. The “death of retinal ganglion cells (increased TUNEL staining), agonist effect” value (retinal ganglion cells [4]; 100 nM) was “induced death of retinal ganglion cells” and the “number of AGB+ cells (cation influx), agonist effect” value (TRPV4 [5]) was “increased the number of AGB^+ retinal ganglion cells and Müller glial cells”.

`CCCCC/C=C\C/C=C\C/C=C\C/C=C\CCCC(=O)O` [arachidonic acid, reference compound] was tested, and the “[Ca2+]i response” value (Müller cells) was “increase in [Ca2+]i”.

For `CC(C)(C)NC[C@H](O)COc1nsnc1N1CCOCC1` [timolol, reference compound], the “inhibition of IOP, curve relative to the exemplary TRPV4 antagonists” value (MB model of glaucoma; positive control, eye drop) was “left-shifted dose-response curve”.

For `Cc1c(C(=O)Nc2cccc(C(=O)OC(C)C)c2)cc(-c2ccccc2)n1CCCN1CCOCC1.Cl` [Compound 2-HCl, iso-propyl 3-(2-methyl-1-(3-morpholinopropyl)-5-phenyl-1H-pyrrole-3-carboxamido)benzoate hydrochloride], the “time of maximal inhibition of IOP after dosing” value (MB model of glaucoma; single dose eye drop) was 6 h and the “time until IOP reached pre-dose levels” value (MB model of glaucoma; single dose eye drop, post-dosing) was 33 h.

In the case of `N.N.N.N.N.N.N.N.N.N.N.N.N.N.[Cl-].[Cl-].[Cl-].[Cl-].[Cl-].[Cl-].[O-2].[O-2].[Ru+3].[Ru+3].[Ru+4]` [Ruthenium Red], the “apoptotic cell death (TUNEL) induced by hypotonic swelling” value (retinal ganglion cells [4]; 190 mOsm saline, Compound 1 1 uM, RuR 10 μM) is reported as “block apoptotic cell death” and the “apoptotic cell death (TUNEL) induced by the TRPV4 agonist GSK” value (retinal ganglion cells [4]; GSK 100 nM, Compound 1 1 uM, RuR 10 μM) is reported as “block apoptotic cell death”.

`CC(=O)OCOC(=O)CN(CC(=O)OCOC(C)=O)c1ccccc1OCCOc1ccccc1N(CC(=O)OCOC(C)=O)CC(=O)OCOC(C)=O` [BAPTA-AM, reference compound] was tested, and the “cell swelling (change in cell area)” value [6] was “significantly reduced”.
